Patent US20240150293A1, “SPIROCYCLOHEXANE DERIVATIVES, PHARMACEUTICAL COMPOSITIONS CONTAINING THEM AND THEIR USES AS ANTI-APOPTOTIC INHIBITORS” (LES LABORATOIRES SERVIER, priority 2021, published 2024)
Like-named read-outs stand apart in the source and are kept apart here.

What was measured:
[1] = target: Cy5-labelled Mcl1 (amino acids 171-321) C286S protein (UniProtKB Q07820) (Homo sapiens (Human), UniProt Q07820, C286S); test: Inhibition of Mcl-1 by the fluorescence quenching assay (Example A, Method B); format: binding
How it was run: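 Eleven-point compound series incubated 2 h at room temperature with 1 nM Cy5-tagged protein and quencher-labelled PUMA peptide at 10, 20 or 400 nM in HEPES/NaCl/Tween 20, pH 7.4, 5% DMSO. IC50 for 50% fluorescence increase by 4-parameter fit, then Ki derived (complete cKi or estimated eKi).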

[2] = system: NCI-H929 cell lines; test: In vitro cytotoxicity, CellTiter-Glo (CTG) assay (Example B, Method B); format: cell-based; details: Homo sapiens, NCI-H929, 48 h, NCI-H929 cells, 48 h incubation, read-out: C50
How it was run: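 ATP-based luminescence (CellTiter-Glo) after 48 h incubation at 37° C., 5% CO2 gave NCI-H929 viability. Eleven concentrations tested, highest final 30 μM, dispensed acoustically from 10 mM DMSO stocks; C50 defined as concentration reaching 50% viability.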

[3] = system: AMO-1 multiple myeloma xenograft; test: Quantification of the cleaved form of PARP in vivo, per os (Example C); set-up: species or system SCID mice; details: single dose per os, tumors recovered 16 hours after dosing
Procedure: (§1) The ability of the compounds of the invention to induce apoptosis was evaluated in vivo using the AMO-1 multiple myeloma xenograft.
(§2) 1×10^7 cells were subcutaneously grafted into immunosuppressed SCID mice. 12-14 days later, when tumors had reached the appropriate volume, mice (3 per group) were treated once with the various compounds (per os, HEC 1%/Tween 80 99:1). Tumor samples were recovered 16 hours after dosing and lysed. Cleared lysates were used for cleaved PARP quantification (as a marker of apoptosis induction) using the Meso Scale Discovery (MSD) Elisa platform test. Results are expressed as the ratio between cleaved PARP in treated mice over control mice.

[4] = system: AMO-1 multiple myeloma xenografts; test: Anti-tumor activity in vivo (Example D); set-up: species or system SCID mice
Procedure: The anti-tumor activity of the compounds of the invention was evaluated using AMO-1 multiple myeloma xenografts.
1×10^7 cells were subcutaneously grafted into immunosuppressed SCID mice. 7-10 days later, when the tumor mass had reached an average volume of about 150 mm^3, mice were treated with the various compounds once a week for 2 weeks (per os, HEC 1%/Tween 80 99:1). Tumor size was measured three times per week using electronic calipers.
At the end of the treatment cycle (d9), tumor growth inhibition (TGI) was calculated using the formula: […]
wherein DTV (Delta Tumor Volume) at Dx was calculated as follows: […]
(Tumor Volume at Dx)−(Tumor Volume at Randomization).

[5] = system: H929 multiple myeloma tumor line; test: In vitro cytotoxicity, MTT assay (Example B, Method A); format: cell-based; details: Homo sapiens, NCI-H929, 48 h, H929 cells, 48 hours exposure, read-out: C50
Procedure: The cytotoxicity studies were carried out on the H929 multiple myeloma tumor line.
The cells are distributed onto microplates and exposed to the test compounds for 48 hours. The cell viability is then quantified by a colorimetric assay, the Microculture Tetrazolium Assay (Carmichael et al, Cancer Res. 1987, 47, 939-942).
The results are expressed in C50 which means concentration corresponding to […] of effect/inhibition.

[6] = system: AMO-1 multiple myeloma xenograft; test: Quantification of the cleaved form of PARP in vivo, IV (Example E); set-up: species or system SCID mice; details: single dose, time-point 6 h
Procedure: as §1
as §2, with “(IV).” for “(per os, HEC 1%/Tween 80 99:1).”, “recovered 6 or” for “recovered”

[7] = 60 mpk per os once a week for 2 weeks
[8] = 120 mpk per os once a week for 2 weeks
[9] = 30 mpk per os once a week for 2 weeks

Cy5-labelled Mcl1 (amino acids 171-321) C286S protein, sequence (Q07820 171-321 C286S): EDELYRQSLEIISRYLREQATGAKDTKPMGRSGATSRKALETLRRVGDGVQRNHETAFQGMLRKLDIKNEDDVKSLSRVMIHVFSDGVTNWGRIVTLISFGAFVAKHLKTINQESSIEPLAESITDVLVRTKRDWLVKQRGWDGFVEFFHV

Structure (SMILES)	Ki [1] [nM]	Ki ([1]; Ki determined from IC50) [nM]	IC50 [2] [nM]	Cleaved PARP (fold to control) ([3]; 60 mpk)	Cleaved PARP (fold to control) ([3]; 120 mpk)	% TGI (d9) [4, 7] [%]	% TGI (d9) [4, 8] [%]	Cleaved PARP (fold to control) ([3]; 30 mpk)	% TGI (d9) [4, 9] [%]	IC50 [5] [nM]	Cleaved PARP (fold to control) ([6]; 7.5 mpk IV)	Cleaved PARP (fold to control) ([6]; 15 mpk IV)
Cc1cc2c(cc1C)[C@]1(CC[C@@](Nc3cccc(Cl)c3)(C(=O)O)CC1)[C@@H](C[C@@H](C)COc1ccnc3c1[C@H](C)CCC3)C2 [Example 854, (1r,2′S,4S)-4-(3-chloroanilino)-5′,6′-dimethyl-2′-[(2R)-2-methyl-3-{[(5R)-5-methyl-5,6,7,8-tetrahydroquinolin-4-yl]oxy}propyl]-2′,3′-dihydrospiro[cyclohexane-1,1′-indene]-4-carboxylic acid]	0.455	–	147	26.4 fold to control	29.1 fold to control	95.2	111.8	6.9 fold to control	32	–	–	–
COCCOc1ccc2c(c1)[C@]1(CC[C@@](Nc3cccc(Cl)c3)(C(=O)O)CC1)[C@@H](C[C@@H](C)COc1ccnc3c1[C@H](C)CCC3)C2 [Example 794, (1r,2′S,4S)-4-(3-chloroanilino)-6′-(2-methoxyethoxy)-2′-[(2R)-2-methyl-3-{[(5R)-5-methyl-5,6,7,8-tetrahydroquinolin-4-yl]oxy}propyl]-2′,3′-dihydrospiro[cyclohexane-1,1′-indene]-4-carboxylic acid]	0.213	–	44.5	6.8 fold to control	12.1 fold to control	70.2	51.5	–	–	–	–	–
COc1ccc2c(c1)[C@]1(CC[C@@](Nc3cccc(Cl)c3)(C(=O)O)CC1)[C@@H](C[C@@H](C)COc1ccnc3c1[C@H](C)CCC3)C2 [Example 781, (1r,2′S,4S)-4-(3-chloroanilino)-6′-methoxy-2′-[(2R)-2-methyl-3-{[(5R)-5-methyl-5,6,7,8-tetrahydroquinolin-4-yl]oxy}propyl]-2′,3′-dihydrospiro[cyclohexane-1,1′-indene]-4-carboxylic acid]	0.234	–	82.3	4.5 fold to control	–	107.8	–	11.6 fold to control	76.4	–	–	–
C[C@@H](COc1ccnc2c1[C@H](C)CCC2)CN1Cc2cc3c(cc2[C@]12CC[C@@](Nc1cccc(Cl)c1)(C(=O)O)CC2)OCO3 [Example 44, (1s,4S)-4-(3-chloroanilino)-6′-[(2R)-2-methyl-3-{[(5R)-5-methyl-5,6,7,8-tetrahydroquinolin-4-yl]oxy}propyl]-6′,7′-dihydro-2′H-spiro[cyclohexane-1,5′-[1,3]dioxolo[4,5-f]isoindole]-4-carboxylic acid]	–	0.126	53.4	0.7 fold to control	1.4 fold to control	–	–	0.7 fold to control	–	–	–	–
Cc1c(Cl)cccc1N[C@]1(C(=O)O)CC[C@]2(CC1)c1cc3c(cc1C[C@@H]2C[C@@H](C)COc1ccnc2c1[C@H](C)CCC2)OCO3 [Example 847, (1r,4S,6′S)-4-(3-chloro-2-methylanilino)-6′-[(2R)-2-methyl-3-{[(5R)-5-methyl-5,6,7,8-tetrahydroquinolin-4-yl]oxy}propyl]-6′,7′-dihydro-2′H-spiro[cyclohexane-1,5′-indeno[5,6-d][1,3]dioxole]-4-carboxylic acid]	0.0847	–	64.3	–	–	–	–	–	–	–	185.9 fold to control	215 fold to control

More lines, main results first:

Ki [1] [nM]	Ki ([1]; Ki determined from IC50) [nM]	Structure (SMILES)	IC50 [2] [nM]	Cleaved PARP (fold to control) ([3]; 60 mpk)	Cleaved PARP (fold to control) ([3]; 120 mpk)	% TGI (d9) [4, 7] [%]	% TGI (d9) [4, 8] [%]	Cleaved PARP (fold to control) ([3]; 30 mpk)	% TGI (d9) [4, 9] [%]	IC50 [5] [nM]	Cleaved PARP (fold to control) ([6]; 7.5 mpk IV)	Cleaved PARP (fold to control) ([6]; 15 mpk IV)
0.251	–	COc1cc2c(cc1Cl)C[C@H](C[C@@H](C)COc1ccnc3c1[C@H](C)CCC3)[C@]21CC[C@](Nc2cccc(Cl)c2)(C(=O)O)CC1 [Example 815, (1r,2′S,4S)-5′-chloro-4-(3-chloroanilino)-6′-methoxy-2′-[(2R)-2-methyl-3-{[(5R)-5-methyl-5,6,7,8-tetrahydroquinolin-4-yl]oxy}propyl]-2′,3′-dihydrospiro[cyclohexane-1,1′-indene]-4-carboxylic acid]	87.7	2.3 fold to control	4.6 fold to control	18.7	66.8	–	–	–	–	–
0.0803	–	CC(C)Oc1ccc2c(c1)[C@]1(CC[C@@](Nc3cccc(Cl)c3)(C(=O)O)CC1)[C@@H](C[C@@H](C)COc1ccnc3c1[C@H](C)CCC3)C2 [Example 786, (1r,2′S,4S)-4-(3-chloroanilino)-2′-[(2R)-2-methyl-3-{[(5R)-5-methyl-5,6,7,8-tetrahydroquinolin-4-yl]oxy}propyl]-6′-[(propan-2-yl)oxy]-2′,3′-dihydrospiro[cyclohexane-1,1′-indene]-4-carboxylic acid]	77.2	–	–	98.9	–	–	43.2	–	–	–
–	0.294	C[C@@H](COc1ccnc2c1[C@H](C)CCC2)CN1Cc2cc(F)ccc2[C@]12CC[C@@](Nc1ccc(F)c(Cl)c1)(C(=O)O)CC2 [Example 42, (1s,4S)-4-(3-chloro-4-fluoroanilino)-5′-fluoro-2′-[(2R)-2-methyl-3-{[(5R)-5-methyl-5,6,7,8-tetrahydroquinolin-4-yl]oxy}propyl]-2′,3′-dihydrospiro[cyclohexane-1,1′-isoindole]-4-carboxylic acid]	–	–	5 fold to control	25.8	114.1	–	–	33.9	–	–
0.0337	–	C[C@@H](COc1ccnc2c1[C@H](C)CCC2)C[C@H]1Cc2cc3c(cc2[C@]12CC[C@@](Nc1cccc(Cl)c1)(C(=O)O)CC2)OCCO3 [Example 838, (1r,4S,7′S)-4-(3-chloroanilino)-7′-[(2R)-2-methyl-3-{[(5R)-5-methyl-5,6,7,8-tetrahydroquinolin-4-yl]oxy}propyl]-2′,3′,7′,8′-tetrahydrospiro[cyclohexane-1,6′-indeno[5,6-b][1,4]dioxine]-4-carboxylic acid]	21.6	7.8 fold to control	–	129.2	–	15 fold to control	–	–	–	–
0.362	–	Cc1c(Cl)cccc1N[C@]1(C(=O)O)CC[C@]2(CC1)c1ccccc1C[C@@H]2C[C@@H](C)COc1ccnc2c1[C@H](C)CCC2 [Example 708, (1r,2′S,4S)-4-(3-chloro-2-methylanilino)-2′-[(2R)-2-methyl-3-{[(5R)-5-methyl-5,6,7,8-tetrahydroquinolin-4-yl]oxy}propyl]-2′,3′-dihydrospiro[cyclohexane-1,1′-indene]-4-carboxylic acid]	107	–	12.6 fold to control	–	–	–	–	–	–	–
–	0.355	C[C@@H](COc1ccnc2c1[C@H](C)CCC2)CN1Cc2cc(F)ccc2[C@]12CC[C@@](Nc1cccc(Cl)c1)(C(=O)O)CC2 [Example 41, (1s,4S)-4-(3-chloroanilino)-5′-fluoro-2′-[(2R)-2-methyl-3-{[(5R)-5-methyl-5,6,7,8-tetrahydroquinolin-4-yl]oxy}propyl]-2′,3′-dihydrospiro[cyclohexane-1,1′-isoindole]-4-carboxylic acid]	115	–	–	7.4	66.8	–	1	–	–	–
